Laboratory results taken from patent publication US7960369B2, “Receptor function regulator” (Takeda Pharmaceutical Company Limited, priority 2002, dated 2011).

Columns and labels:
[1] = system: mouse insulinoma MIN6 cell; test: Insulin secretagogue effect of free fatty acid in mouse insulinoma MIN6 cell (RIA); format: cell-based; settings: 300 μM-1000 μM free fatty acid-BSA (4:1), 11 mM glucose, 90 min (or 60 min)
Procedure: Unless otherwise specified, MIN6 cell was incubated in DMEM (high glucose, Invitrogen) containing 15% FCS (Trace Scientific Ltd.), 55 μM 2-mercaptoethanol, 100 U/ml penicillin, and 100 μg/ml streptomycin. Min6 cells were seeded in a 96 well plate at 10^5 cells per well, and incubated at 37° C. for 3 days in a CO2 incubator adjusted to 5% CO2 concentration. The medium was exchanged to RPMI1640 (glucose-free, Invitrogen) containing 10% FCS (Trace Scientific Ltd.), 5.5 mM glucose, 100 U/ml penicillin and 100 μg/ml streptomycin and the cells were further incubated for 24 hrs. The medium was aspirated, free fatty acid-bovine serum albumin (BSA) mixed solution (4:1, molar ratio) diluted with RPMI1640 (glucose-free, Invitrogen) containing 10% FCS (Trace Scientific Ltd.), 11 mM glucose, 100 U/ml penicillin, and 100 μg/ml streptomycin was added to the cells and reacted at 37° C. for 90 min. (or 60 min.) in a CO2 incubator adjusted to 5% CO2 concentration. The 96 well plate after reaction was centrifuged at 1500 rpm for 5 min. and the culture supernatant was recovered. The insulin amount secreted in this culture supernatant liquid was determined by radioimmunoassay (RIA) using a rat insulin RIA system (Amersham Pharmacia Biotech).

human-derived GPR40 = molecular target: T1, human-derived GPR40 (Homo sapiens, UniProt O14842); test: Reactivity of fatty acid to human-derived GPR40, intracellular calcium by FLIPR in transfected CHO-K1 cells; format: cell-based; settings: for activity in intracellular calcium ion mobilization assay using CHO cell expressing GPR40 (GPR40 agonistic activity): as stated in Experimental Example 6
T1 construct: expressed in transfected cells; host or cells: CHO-K1, transient transfection with lipofectamine
Procedure: Unless specifically indicated, CHO-K1 cell line was cultured using Ham's F-12 medium (Invitrogen) containing 10% fetal calf serum (Invitrogen). The day before transfection, 4.5×10^5 per 10 cm^2 of cells were seeded, and incubated at 37° C. for not less than 15 hrs in a CO2 incubator adjusted to 5% CO2 concentration. The transfection was performed using a lipofectamine reagent (Invitrogen) and according to the reagent attached method. When a 6-well plate was used for a culture plate, transfection was performed in the following manner. First two 1.5 ml volume tubes were prepared, and 100 μl of Opti-MEM-I medium (Invitrogen) was dispensed. Then, […] of an expression vector was added to one tube and 6 μl of a lipofectamine reagent was added to the other tube. They were mixed and stood still at room temperature for 20 min. A mixed solution for transfection containing this solution and Opti-MEM-I medium (800 μl) was added to CHO-K1 cell previously washed with Opti-MEM-I medium, and incubated in a CO2 incubator for 6 hrs. The incubated cells were rinsed with PBS (Invitrogen), detached with 0.05% trypsin-EDTA solution (Invitrogen), recovered by centrifugation. The obtained cells were counted, diluted such that 5×10^4 cells were contained per 200 μl of the medium, dispensed to black walled 96-well plate (Costar) at 200 μl per well, incubated overnight in a CO2 incubator. Various test samples were added to CHO-K1 cells transiently expressing the receptor by the above-mentioned transfection step, and changes in the intracellular calcium concentration then was measured using FLIPR (Molecular Device). For measurement of changes in intracellular calcium concentration by FLIPR, the following pretreatment was applied. First, an assay buffer for adding fluorescence dye Fluo-3AM (DOJIN) to the cell, or washing the cell immediately before FLIPR assay was prepared. To a solution (hereinafter HBSS/HEPES solution) obtained by adding 20 ml of 1M HEPES (pH 7.4) (DOJIN) to 1000 ml of HBSS (Invitrogen) was added a solution (10 ml) obtained by dissolving probenecid (710 mg, Sigma) in 1N NaOH (5 ml) and adding and mixing with HBSS/HEPES solution (5 ml) and the obtained solution was used as an assay buffer. Then, Fluo-3AM (50 μg) was dissolved in 21 μl of DMSO (DOJIN), and an equal amount of 20% pluronic acid (Molecular Probes) was added. The mixture was added to an assay buffer (10.6 ml) supplemented with 105 μl of fetal calf serum to give a fluorescence dye solution. The medium of the CHO-KL cell after transfection treatment was removed, a fluorescence dye solution was immediately dispensed at 100 μl per well and incubated in a CO2 incubator for 1 hr to incorporate the fluorescence dye into the cell. The incubated cells were washed with the above-mentioned assay buffer and set on FLIPR. The test sample to be added to receptor expressing CHO-KL cell was prepared using the assay buffer and simultaneously set on FLIPR. After the above-mentioned pretreatment, changes in the intracellular calcium concentration after addition of various test samples were measured by FLIPR.

[2] = system: mouse pancreatic β cell line MIN6; test: Promotion of insulin secretion from MIN6 (insulin immunoassay); format: cell-based; settings: MIN6, KRBH with 22 mM glucose, 90 min
Procedure: (§1) Mouse pancreatic β cell line MIN6 cultured in a flask was detached with PBS containing 2.5 mM EDTA, and seeded and incubated in a 96 well plate for 2 days. The medium used was obtained by adding 15% fetal bovine serum (ThermoTrace), […] 2-mercaptoethanol (Invitrogen), 20 mM HEPES pH 7.3, 100 U/ml penicillin and 100 μg/ml streptomycin to Dulbecco's Modified Eagle Medium (DMEM, Invitrogen) containing 4.5 g/l of glucose. The cells were washed twice with modified Krebs-Ringer bicarbonate buffer (KRBH, 116 mM NaCl, 4.7 mM KCl, 1.2 mM KH2PO4, 1.2 mM MgSO4, 2.5 mM CaCl2, 25 mM NaHCO3, 24 mM HEPES pH 7.3) and preincubated at 37° C. under 5% CO2 conditions for 30 min. Fatty acid diluted and prepared with a buffer obtained by adding 22 mM glucose to the above-mentioned KRBH was added to the cell after preincubation and the cells were incubated at 37° C. under 5% CO2 conditions for 90 min. After incubation, the cell supernatant was recovered and cryopreserved. The insulin content of the supernatant was measured using a commercially available insulin immunoassay kit (Amersham Pharmacia Biotech).
as §1, with “(KBH,” for “(KRBH,”, “The compound” for “Fatty acid”

[3] = system: mouse GPR40-GFP fused protein; test: Suppression of expression of mouse GPR40-GFP fused protein by siRNA in CHO cells (enzyme immunoassay); format: cell-based; settings: siRNA 2.86 Pmol/0.5 μl or 8.57 Pmol/1.5 μl introduced into mouse GPR40-GFP expressing CHO cell; absorbance at 450 nm
Procedure: CHO cell expressing fused protein of mouse GPR40 and GFP prepared by a method known per se was seeded in a 96 well plate at 3×10^4/well and incubated for one day. siRNA of various sequences (Dharmacon) (concentration of 2.86 Pmol/0.5 μl or 8.57 Pmol/1.5 μl) prepared using HVJ Envelope VECTOR KIT GenomONE™ ([…] SANGYO) and according to the report of Elbasir et al. (Nature 411 (6836), 494-498 (2001)) was introduced into the cells and the cells were further incubated for one day. The expression amount of mouse GPR40-GFP was detected by the following enzyme immunoassay. The culture supernatant was discarded, washed with HBSS (Invitrogen), fixed with 0.01% glutaraldehyde (Wako Pure Chemical Industries, Ltd.) for 5 min., and blocked with PBS (TAKARA SHUZO) containing 2% BSA. 500-fold diluted anti-GFP monoclonal antibody 3E6 (NIPPON GENE CO., LTD.) was added and the cells were incubated at room temperature for 2 hrs., washed and 500-fold diluted HRP-labeled anti-mouse IgG antibody (ICN) was added, and the cells were incubated at room temperature for 2 hrs. After washing, TMB microwell peroxydase substrate (Funakoshi) was added and, after incubation for 30 min., sulfuric acid was added to stop the color developing reaction, and the absorbance at 450 nm was measured.

[4] = system: siRNA-introduced MIN6 cell; test: Insulin secretion enhancing activity of fatty acid in siRNA-introduced MIN6; format: cell-based, mouse
Procedure: The expression amount of mouse GPR40-GFP was detected by the following enzyme immunoassay. The culture supernatant was discarded, washed with HBSS (Invitrogen), fixed with 0.01% glutaraldehyde (Wako Pure Chemical Industries, Ltd.) for 5 min., and blocked with PBS (TAKARA SHUZO) containing 2% BSA. 500-fold diluted anti-GFP monoclonal antibody 3E6 (NIPPON GENE CO., LTD.) was added and the cells were incubated at room temperature for 2 hrs., washed and 500-fold diluted HRP-labeled anti-mouse IgG antibody (ICN) was added, and the cells were incubated at room temperature for 2 hrs. After washing, TMB microwell peroxydase substrate (Funakoshi) was added and, after incubation for 30 min., sulfuric acid was added to stop the color developing reaction, and the absorbance at 450 nm was measured.
as §1
Insulin secretion enhancing activity in MIN6 cell, into which m40i103 was introduced using HVJ Envelope VECTOR KIT GenomONE based on the method of Experimental Example 5, was examined. The insulin secretion enhancing activity by fatty acid was examined by the method of Experimental Example 6.

T1 sequence (O14842 whole entry): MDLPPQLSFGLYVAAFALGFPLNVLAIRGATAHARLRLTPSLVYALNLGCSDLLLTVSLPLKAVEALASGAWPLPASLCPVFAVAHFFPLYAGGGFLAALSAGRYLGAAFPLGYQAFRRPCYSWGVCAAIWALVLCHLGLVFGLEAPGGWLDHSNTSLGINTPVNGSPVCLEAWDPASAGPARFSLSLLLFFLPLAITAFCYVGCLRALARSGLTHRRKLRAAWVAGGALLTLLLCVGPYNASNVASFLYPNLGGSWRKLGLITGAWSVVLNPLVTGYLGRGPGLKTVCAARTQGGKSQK

Compound	insulin secretion by MIN6 cell [1]	response (increase in intracellular calcium concentration) of CHO-K1 cell expressing the GPR40 receptor (human-derived GPR40; added at 10^−5M-10^−6M, FLIPR, control-vector cells showed no response)	activity in intracellular calcium ion mobilization assay using CHO cell expressing GPR40 (GPR40 agonistic activity) (human-derived GPR40)	insulin secretion enhancing activity [2]	mouse GPR40-GFP expression amount [3]	effect of siRNA introduction on insulin secretion enhancing activity by linoleic acid and γ-linolenic acid ([4]; siRNA introduced into MIN6 with HVJ Envelope VECTOR KIT GenomONE)	insulin secretion enhancing activity of fatty acid ([4]; MIN6 into which GPR40 specific siRNA m40i103 was introduced)	insulin secretion enhancing activity of fatty acid ([4]; MIN6 into which random sequence Scramble II duplex siRNA was introduced)
CCCCCCCC/C=C\CCCCCCCC(=O)O [oleic acid]	promoted	specifically responds	remarkable activity	significant insulin secretion enhancing activity				
m40i256: mouse GPR40 specific siRNA "(sense strand is SEQ ID NO: 25, antisense strand is SEQ ID NO: 26)" (sense CUUGUUAGCCAUCCGAGGCTT; antisense TTGAACAATCGGTAGGCTCCG; chemistry not given here; one strand is listed 3' to 5')					lower GPR40-GFP expression amount			
m40i103: "a mouse GPR40 specific siRNA (sense strand is SEQ ID NO: 23, antisense strand is SEQ ID NO: 24)" (sense CGCCAGUUGUGACAUUCUUTT; antisense TTGCGGUCAACACUGUAAGAA; chemistry not given here; one strand is listed 3' to 5')					lower GPR40-GFP expression amount	no longer showed insulin secretion enhancing activity		
CCCCC/C=C\C/C=C\C/C=C\CCCCC(=O)O [γ-linolenic acid]	promoted		remarkable activity	significant insulin secretion enhancing activity			no longer showed insulin secretion enhancing activity	retention of the insulin secretion enhancing activity
